The target of this assay is PRMT5 (protein arginine methyltransferase 5) (Homo sapiens, UniProt O14744). The class given is biochemical.

The values that follow come from article PMC10618744 (Cancer Discovery, 2023).

In general, IC50 refers to the point on the concentration scale where inhibition reaches its midpoint.

Chain of PRMT5 (protein arginine methyltransferase 5) (O14744 2-637): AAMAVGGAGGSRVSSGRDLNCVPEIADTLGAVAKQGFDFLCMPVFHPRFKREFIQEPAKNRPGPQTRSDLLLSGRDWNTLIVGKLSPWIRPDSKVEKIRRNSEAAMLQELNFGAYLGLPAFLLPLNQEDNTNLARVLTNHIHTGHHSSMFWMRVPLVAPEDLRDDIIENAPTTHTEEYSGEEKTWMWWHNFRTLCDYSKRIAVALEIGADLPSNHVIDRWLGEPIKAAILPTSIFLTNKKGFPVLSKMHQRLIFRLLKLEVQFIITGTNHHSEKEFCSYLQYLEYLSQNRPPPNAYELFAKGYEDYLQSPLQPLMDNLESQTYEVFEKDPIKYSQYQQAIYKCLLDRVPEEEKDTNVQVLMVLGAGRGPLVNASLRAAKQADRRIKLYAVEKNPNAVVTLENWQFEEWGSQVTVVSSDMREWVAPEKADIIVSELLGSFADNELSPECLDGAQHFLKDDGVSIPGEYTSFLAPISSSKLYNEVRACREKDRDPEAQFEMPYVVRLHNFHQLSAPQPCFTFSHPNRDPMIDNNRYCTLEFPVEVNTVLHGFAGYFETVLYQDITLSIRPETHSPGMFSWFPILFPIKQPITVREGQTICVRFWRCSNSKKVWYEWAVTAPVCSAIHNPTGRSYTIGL
Chain of PRMT5 (protein arginine methyltransferase 5) (Q9BQA1 2-342 partner): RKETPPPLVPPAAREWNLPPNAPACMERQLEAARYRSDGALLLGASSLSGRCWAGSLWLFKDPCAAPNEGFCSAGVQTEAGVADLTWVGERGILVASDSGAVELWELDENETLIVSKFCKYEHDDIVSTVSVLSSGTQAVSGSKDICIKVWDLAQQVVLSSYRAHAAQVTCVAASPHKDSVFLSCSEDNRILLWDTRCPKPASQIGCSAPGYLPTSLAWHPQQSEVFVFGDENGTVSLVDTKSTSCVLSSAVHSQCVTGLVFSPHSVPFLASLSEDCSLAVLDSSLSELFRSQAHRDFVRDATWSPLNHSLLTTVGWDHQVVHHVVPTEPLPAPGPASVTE

`CSC[C@H]1O[C@@H](n2cnc3c(N)ncnc32)[C@H](O)[C@@H]1O` [MTA] showed an IC50 of around 2000 nM.
